# In ChEMBL document CHEMBL1201862, “PubChem BioAssay data set” (2004):
#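 Five compound concentrations were applied to cells in 96-well plates for 48 hours; endpoints were derived by simple linear interpolation of the resulting dose-response curve. At the GI50, growth is halved.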 Calls of active or inactive are those of the source. Cut-off read from the data, not from the text of the source: active = GI50 up to about 1.1 µM and inactive = higher.
# Key:
# Experiment in all cases: NCI tumour cell line growth inhibition, 48 h
# NCI/ADR-RES = test system: NCI/ADR-RES
# MOLT-4 = test system: MOLT-4
# COLO 205 = test system: COLO 205
# M14 = test system: M14
# NCI-H460 = test system: NCI-H460
# OVCAR-5 = test system: OVCAR-5
# SNB-19 = test system: SNB-19
# A549 = test system: A549
# OVCAR-3 = test system: OVCAR-3
# BT-549 = test system: BT-549
# UACC-257 = test system: UACC-257
# HOP-92 = test system: HOP-92
# A498 = test system: A498
# SF-539 = test system: SF-539
# HT-29 = test system: HT-29
# 786-0 = test system: 786-0
# SK-MEL-28 = test system: SK-MEL-28
# RPMI-8226 = test system: RPMI-8226
# DLD-1 = test system: DLD-1
# SF-295 = test system: SF-295
# HCT-116 = test system: HCT-116
# HOP-62 = test system: HOP-62
# CCRF-CEM = test system: CCRF-CEM
# IGROV-1 = test system: IGROV-1
# SNB-78 = test system: SNB-78
# RXF 393 = test system: RXF 393
# SF-268 = test system: SF-268
# Malme-3M = test system: Malme-3M
# MDA-MB-231 = test system: MDA-MB-231
# ACHN = test system: ACHN
# HCC 2998 = test system: HCC 2998
# SNB-75 = test system: SNB-75
# MDA-MB-435 = test system: MDA-MB-435
# NCI-H522 = test system: NCI-H522
# HCT-15 = test system: HCT-15
# TK-10 = test system: TK-10
# SW-620 = test system: SW-620
# SR = test system: SR
# OVCAR-8 = test system: OVCAR-8
# HL-60 = test system: HL-60
# M19-MEL = test system: M19-MEL
# SK-OV-3 = test system: SK-OV-3
# SN12C = test system: SN12C
# KM12 = test system: KM12
# XF498 = test system: XF498
# LXFL 529 = test system: LXFL 529
# OVCAR-4 = test system: OVCAR-4
# UACC-62 = test system: UACC-62
# CAKI-1 = test system: CAKI-1
# LOX IMVI = test system: LOX IMVI
# SK-MEL-5 = test system: SK-MEL-5
# DMS-273 = test system: DMS-273
# DU-145 = test system: DU-145
# PC-3 = test system: PC-3
# DMS-114 = test system: DMS-114
# T47D = test system: T47D
# MDA-N = test system: MDA-N
# HOP-18 = test system: HOP-18
# SK-MEL-2 = test system: SK-MEL-2
# K562 = test system: K562
# Hs-578T = test system: Hs-578T
# MCF7 = test system: MCF7
# EKVX = test system: EKVX
# KM-20L2 = test system: KM-20L2
# NCI-H226 = test system: NCI-H226
# U-251 = test system: U-251
# NCI-H23 = test system: NCI-H23
# UO-31 = test system: UO-31
# RXF 631 = test system: RXF 631
smiles,measurement,setting,value
CC12CC(Br)(Br)C(=O)C3C1CCCC32,GI50,NCI/ADR-RES,2.51 µM (inactive)
same,GI50,MOLT-4,1.67 µM (inactive)
same,GI50,COLO 205,2.38 µM (inactive)
same,GI50,M14,3.64 µM (inactive)
same,GI50,NCI-H460,14.9 µM (inactive)
same,GI50,OVCAR-5,17.8 µM (inactive)
same,GI50,SNB-19,14.2 µM (inactive)
same,GI50,A549,14.6 µM (inactive)
same,GI50,OVCAR-3,3.15 µM (inactive)
same,GI50,BT-549,2.09 µM (inactive)
same,GI50,UACC-257,8.65 µM (inactive)
same,GI50,HOP-92,2.17 µM (inactive)
same,GI50,A498,16.8 µM (inactive)
same,GI50,SF-539,11.9 µM (inactive)
same,GI50,HT-29,5.47 µM (inactive)
same,GI50,786-0,4.07 µM (inactive)
same,GI50,SK-MEL-28,2.9 µM (inactive)
same,GI50,RPMI-8226,2.84 µM (inactive)
same,GI50,DLD-1,4.63 µM (inactive)
same,GI50,SF-295,15.9 µM (inactive)
same,GI50,HCT-116,1.93 µM (inactive)
same,GI50,HOP-62,17.5 µM (inactive)
same,GI50,CCRF-CEM,1.36 µM (inactive)
same,GI50,IGROV-1,10.1 µM (inactive)
same,GI50,SNB-78,20 µM (inactive)
same,GI50,RXF 393,2.11 µM (inactive)
same,GI50,SF-268,10.2 µM (inactive)
same,GI50,Malme-3M,4.06 µM (inactive)
same,GI50,MDA-MB-231,3.24 µM (inactive)
same,GI50,ACHN,5.27 µM (inactive)
same,GI50,HCC 2998,6.89 µM (inactive)
same,GI50,SNB-75,8.2 µM (inactive)
same,GI50,MDA-MB-435,3.03 µM (inactive)
same,GI50,NCI-H522,3.08 µM (inactive)
same,GI50,HCT-15,3.61 µM
same,GI50,TK-10,6.27 µM (inactive)
same,GI50,SW-620,2.25 µM (inactive)
same,GI50,SR,4.43 µM (inactive)
same,GI50,OVCAR-8,4.07 µM (inactive)
same,GI50,HL-60,0.767 µM (active)
same,GI50,M19-MEL,8.34 µM (inactive)
same,GI50,SK-OV-3,15.3 µM (inactive)
same,GI50,SN12C,4.57 µM (inactive)
same,GI50,KM12,13 µM (inactive)
same,GI50,XF498,8.73 µM (inactive)
same,GI50,LXFL 529,2.38 µM (inactive)
same,GI50,OVCAR-4,4.48 µM (inactive)
same,GI50,UACC-62,7.13 µM (inactive)
same,GI50,CAKI-1,2.65 µM (inactive)
same,GI50,LOX IMVI,2.68 µM (inactive)
same,GI50,SK-MEL-5,5.55 µM (inactive)
same,GI50,DMS-273,6.58 µM (inactive)
same,GI50,DU-145,12.4 µM (inactive)
same,GI50,PC-3,12.2 µM (inactive)
same,GI50,DMS-114,6.3 µM (inactive)
same,GI50,T47D,2.38 µM (inactive)
same,GI50,MDA-N,2.99 µM (inactive)
same,GI50,HOP-18,9.89 µM (inactive)
same,GI50,SK-MEL-2,13.9 µM (inactive)
same,GI50,K562,2.1 µM (inactive)
same,GI50,Hs-578T,12.6 µM (inactive)
same,GI50,MCF7,4.33 µM (inactive)
same,GI50,EKVX,7.1 µM (inactive)
same,GI50,KM-20L2,17.4 µM (inactive)
same,GI50,NCI-H226,11.3 µM (inactive)
same,GI50,U-251,11.5 µM (inactive)
same,GI50,NCI-H23,6.46 µM (inactive)
same,GI50,UO-31,6.05 µM (inactive)
CC1(Cl)CCC2(CC(Br)=CC3OC32C)CC1Br (configuration not stated),GI50,MOLT-4,17 µM (inactive)
same,GI50,M14,43.2 µM (inactive)
same,GI50,NCI-H460,27.1 µM (inactive)
same,GI50,OVCAR-5,79.4 µM (inactive)
same,GI50,SNB-19,45 µM (inactive)
same,GI50,A549,28.6 µM (inactive)
same,GI50,UACC-257,18.4 µM (inactive)
same,GI50,HOP-92,24.9 µM (inactive)
same,GI50,A498,26.6 µM (inactive)
same,GI50,HT-29,17.9 µM (inactive)
same,GI50,RXF 631,> 10 µM (inactive)
same,GI50,SK-MEL-28,23.6 µM (inactive)
same,GI50,SF-295,22.6 µM (inactive)
same,GI50,HCT-116,18.2 µM (inactive)
same,GI50,HOP-62,39.4 µM (inactive)
same,GI50,CCRF-CEM,18.6 µM (inactive)
same,GI50,IGROV-1,42.9 µM (inactive)
same,GI50,SNB-78,12.4 µM (inactive)
same,GI50,RXF 393,18.3 µM (inactive)
same,GI50,SF-268,19.2 µM (inactive)
same,GI50,NCI-H522,23.9 µM (inactive)
same,GI50,TK-10,46.6 µM (inactive)
same,GI50,SR,20.7 µM (inactive)
same,GI50,OVCAR-8,30.8 µM (inactive)
same,GI50,HL-60,15.2 µM (inactive)
same,GI50,M19-MEL,32.3 µM (inactive)
same,GI50,SK-OV-3,51.8 µM (inactive)
same,GI50,KM12,32.5 µM (inactive)
same,GI50,UACC-62,19.2 µM (inactive)
same,GI50,DMS-114,29.4 µM (inactive)
same,GI50,EKVX,52.6 µM (inactive)
same,GI50,NCI-H226,23.2 µM (inactive)
same,GI50,U-251,19 µM (inactive)
same,GI50,NCI-H23,20.1 µM (inactive)
same,GI50,UO-31,28.6 µM (inactive)
COC(=O)C(=O)Cc1nc2ccccc2o1,GI50,MOLT-4,> 100 µM (inactive)
same,GI50,M14,> 100 µM (inactive)
same,GI50,NCI-H460,> 100 µM (inactive)
same,GI50,OVCAR-5,> 100 µM (inactive)
same,GI50,SNB-19,> 100 µM (inactive)
same,GI50,OVCAR-3,> 100 µM (inactive)
same,GI50,UACC-257,> 100 µM (inactive)
same,GI50,A498,> 100 µM (inactive)
same,GI50,SF-539,> 100 µM (inactive)
same,GI50,HT-29,> 100 µM (inactive)
same,GI50,RXF 631,> 100 µM (inactive)
same,GI50,SK-MEL-28,> 100 µM (inactive)
same,GI50,DLD-1,> 100 µM (inactive)
same,GI50,HCT-116,> 100 µM (inactive)
same,GI50,HOP-62,> 100 µM (inactive)
same,GI50,CCRF-CEM,> 100 µM (inactive)
same,GI50,SNB-78,> 100 µM (inactive)
same,GI50,RXF 393,> 100 µM (inactive)
same,GI50,SF-268,> 100 µM (inactive)
same,GI50,Malme-3M,> 100 µM (inactive)
same,GI50,ACHN,> 100 µM (inactive)
same,GI50,HCC 2998,> 100 µM (inactive)
same,GI50,SNB-75,> 100 µM (inactive)
same,GI50,NCI-H522,> 100 µM (inactive)
same,GI50,HCT-15,> 100 µM
same,GI50,TK-10,> 100 µM (inactive)
same,GI50,SR,> 100 µM (inactive)
same,GI50,HL-60,> 100 µM (inactive)
same,GI50,M19-MEL,> 100 µM (inactive)
same,GI50,SK-OV-3,> 100 µM (inactive)
same,GI50,SN12C,> 100 µM (inactive)
same,GI50,KM12,> 100 µM (inactive)
same,GI50,XF498,> 100 µM (inactive)
same,GI50,LXFL 529,> 100 µM (inactive)
same,GI50,OVCAR-4,> 100 µM (inactive)
same,GI50,UACC-62,> 100 µM (inactive)
same,GI50,LOX IMVI,> 100 µM (inactive)
same,GI50,DMS-114,> 100 µM (inactive)
same,GI50,SK-MEL-2,> 100 µM (inactive)
same,GI50,K562,> 100 µM (inactive)
same,GI50,EKVX,> 100 µM (inactive)
same,GI50,U-251,> 100 µM (inactive)
same,GI50,NCI-H23,> 100 µM (inactive)
same,GI50,UO-31,> 100 µM (inactive)
